Where a chain is given by its changes, count along the chain named.
What was measured:
Assay in all cases: whole-cell patch clamp, HEK293T cells expressing mutant
Format in all cases: cell-based
Settings in all cases: for relative responsiveness: 100 µM agonist 2 s, relative to ATP (100%)
[1] = target: T1, rP2X4R S212A mutant (Rattus norvegicus, UniProt P51577, S212A)
T1 construct: expressed in transfected cells; host or cells: HEK293T
T1 sequence (P51577 1-388 S212A): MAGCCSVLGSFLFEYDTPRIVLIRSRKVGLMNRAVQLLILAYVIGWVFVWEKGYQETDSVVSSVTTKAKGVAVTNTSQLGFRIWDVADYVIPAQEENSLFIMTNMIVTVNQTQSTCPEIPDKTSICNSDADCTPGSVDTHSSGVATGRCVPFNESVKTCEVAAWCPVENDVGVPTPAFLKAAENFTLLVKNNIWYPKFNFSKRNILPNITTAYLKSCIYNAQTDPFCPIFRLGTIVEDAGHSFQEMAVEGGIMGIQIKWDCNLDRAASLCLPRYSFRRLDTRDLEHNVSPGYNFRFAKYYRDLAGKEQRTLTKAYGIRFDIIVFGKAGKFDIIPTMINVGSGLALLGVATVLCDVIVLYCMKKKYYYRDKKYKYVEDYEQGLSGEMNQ
Method: (§1) To express the recombinant channels, we used human embryonic kidney (HEK) 293T cells (American Type Culture Collection, Rockville, MD, USA) grown in Dulbecco modified Eagle’s medium (Thermo Fisher Scientific, Waltham, MA) supplemented with 10% fetal bovine serum (Sigma-Aldrich, St Louis, MO), 50 U/ml penicillin and 50 µg/ml streptomycin (both Thermo Fisher Scientific, Waltham, MA) in a humidified 5% CO2 and 95% air at 37°C. Cells were cultured in 75 cm^2 plastic culture flasks (NUNC, Rochester, NY) for 36–72 hours until reaching 80–95% confluence. Before the day of transfection, the cells were plated on 35 mm culture dishes (Sarstedt, Newton, NC) and incubated at 37°C for at least 24 h. Transfection was done using 2 µg of either WT or mutant receptor DNA with 2 µl of JetPrime reagent in 2 ml of Dulbecco modified Eagle’s medium, according to manufacturer’s instructions (PolyPlus-transfection, Illkirch, France). Transfected cells were identified by the fluorescence signal of EGFP using the Olympus IX71 inverted research microscope with fluorescence illuminators (Model IX71; Olympus, Melville, NY).
(§2) cDNAs encoding the sequences of the rP2X4 and mutated subunits were subcloned into the pIRES2-EGFP vector (Clontech, Mountain View, CA, USA). To generate the mutants, oligonucleotides (synthesized and provided by VBC-Genomics, Vienna, Austria or Sigma Aldrich) containing specific mutagenesis mismatches were introduced into the rP2X4/pIRES2-EGFP template using PfU Ultra DNA polymerase (Thermo Fisher Scientific). A High-Speed Plasmid Mini Kit (Geneaid, Taipei City, Taiwan) was used to isolate the plasmids for transfection. Dye terminator cycle sequencing (ABI PRISM 3100, Applied Biosystems, Foster City, CA) was used to identify and verify the presence of the mutations. The sequencing was performed by the DNA Sequencing Laboratory, Institute of Microbiology, ASCR, Prague.
(§3) ATP-induced currents were recorded from whole cells clamped to −60 mV using an Axopatch 200B patch-clamp amplifier (Axon Instruments, Union City, CA). The recordings were captured and stored using the Digidata 1322A and pClamp9 software package (Axon Instruments). During the experiments, the cell culture was perfused with a bath solution containing: 142 mM NaCl, 3 mM KCl, 2 mM CaCl2, 1 mM MgCl2, 10 mM 4-(2-Hydroxyethyl)piperazine-1-ethanesulfonic acid (HEPES) and 10 mM D-glucose, adjusted to pH 7.3 with 1 M NaOH. The patch electrodes were filled with a solution containing: 154 mM CsCl, 11 mM EGTA and 10 mM HEPES, adjusted to pH 7.2 with 1.6 M CsOH. The whole-cell configuration was used to abolish the influence of natively present metabotropic receptors for ATP and we used intracellular cesium to block any kind of possible background potassium conductance. Potency of ATP was measured based on the activation of naïve (not previously stimulated) receptors using a short (2–5 s) application of various concentrations of ATP. The results are expressed as molar concentration of ATP required to produce 50% of the maximal response (EC50). One or two responses were recorded from one cell, if not otherwise stated, and responses from different cells were pooled. The maximum current amplitude (Imax) was measured in response to application of supramaximal concentrations (100–1000 µM) of ATP. Responsiveness to P2XR agonists 2-MeS-ATP, ATPγS, BzATP, and α,β-meATP, all applied in 100 µM concentration, was expressed as percentage of response in comparison to 100 µM ATP treatment for selected mutants. In all mutants, the whole cell currents were also measured in the presence of 3 µM IVM, which was dissolved in dimethyl sulfoxide, stored in stock solutions at 10 mM, and diluted to required concentrations in bath solution in the day of experiment. The control and drug containing solutions were applied via a rapid (exchange time 30–40 ms) perfusion system (RSC-200, BIOLOGIC, Claix, France). All other chemicals are from Sigma-Aldrich. […]

[2] = target: T2, rP2X4R Y292A mutant (Rattus norvegicus, UniProt P51577, Y292A)
T2 construct: expressed in transfected cells; host or cells: HEK293T
T2 sequence (P51577 1-388 Y292A): T1 sequence (P51577 1-388 S212A) with A212S, Y292A
Method: as §1, §2, §3

[3] = target: T3, rP2X4R H286A mutant (Rattus norvegicus, UniProt P51577, H286A)
T3 construct: expressed in transfected cells; host or cells: HEK293T
T3 sequence (P51577 1-388 H286A): T1 sequence (P51577 1-388 S212A) with A212S, H286A
Method: as §1, §2, §3

[4] = 100 µM ATP 60 s, biexponential fit
[5] = contribution of τdes2, 100 µM ATP 60 s
[6] = decay after removal of 1 or 3 µM ATP, 3 µM IVM
[7] = naïve receptors, 2–5 s application
[8] = 3 µM IVM 4-6 min vs IVM-untreated

Molecule “2′(3′-O-(4-Benzoylbenzoyl)adenosine 5′-triphosphate [BzATP]” has a relative responsiveness [1] of 47.5±5.2%, a relative responsiveness [2] of 28.9±8.2% and a relative responsiveness [3] of 25.6±4.0%.

Work on `CSc1nc(N)c2ncn([C@@H]3O[C@H](COP(=O)(O)OP(=O)(O)OP(=O)(O)O)[C@@H](O)[C@H]3O)c2n1` [2-MeS-ATP, 2-(Methylthio)adenosine 5′-triphosphate] yielded a relative responsiveness [1] of 65.1±19.7%, a relative responsiveness [2] of 49.8±8.6% and a relative responsiveness [3] of 67.9±1.2%.

Molecule `Nc1ncnc2c1ncn2[C@@H]1O[C@H](COP(=O)(O)OP(=O)(O)OP(=O)(O)O)[C@@H](O)[C@H]1O` [ATP] has a τdes1 [1, 4] of 1.7 ± 0.4 s, a τdes2 [1, 4] of 11.4 ± 1.5 s and an Imax ([1]; 100–1000 µM ATP) of 2.1 ± 0.2 nA. For the same molecule, the “Imax+IVM” value ([1]; ATP after 3 µM IVM 4-6 min) was 3.4 ± 0.2 nA, the “A2 /(A1+A2)” value [1, 5] was 62 ± 5% and the “τoff +IVM” value [1, 6] was 20 ± 5.0 s. The EC50 [1, 7] was 4.8 ± 1.2 µM, the τdes ([1]; weighted, 100 µM ATP 60 s) was 7.8 ± 1.1 s and the τdes1 [2, 4] was 1.9 ± 0.2 s. The τdes2 [2, 4] was 15.8 ± 0.2 s, the Imax ([2]; 100–1000 µM ATP) was 1.9 ± 0.3 nA and the “Imax+IVM” value ([2]; ATP after 3 µM IVM 4-6 min) was 4.3 ± 0.3 nA. For the same molecule, the “A2 /(A1+A2)” value [2, 5] was 57 ± 3%, the “τoff +IVM” value [2, 6] was 11 ± 1.2 s and the EC50 [2, 7] was 7.2 ± 1.9 µM. It also gave a τdes ([2]; weighted, 100 µM ATP 60 s) of 10 ± 1.5 s, a τdes1 [3, 4] of 4.0 ± 0.8 s and a τdes2 [3, 4] of 16.2 ± 1.6 s. For the same molecule, the “Imax+IVM” value ([3]; ATP after 3 µM IVM 4-6 min) was 4.2 ± 0.7 nA, the “A2 /(A1+A2)” value [3, 5] was 55 ± 5% and the “τoff +IVM” value [3, 6] was 12 ± 2.1 s. For the same molecule, the EC50 [3, 7] was 20 ± 2.9 µM and the τdes ([3]; weighted, 100 µM ATP 60 s) was 11 ± 1.4 s.

Molecule `Nc1ncnc2c1ncn2[C@@H]1O[C@H](CO[P@](=O)(O)O[P@](=O)(O)O[P@@](=O)(O)S)[C@@H](O)[C@H]1O` [ATPγS, Adenosine 5′-(γ-thio)triphosphate] has a relative responsiveness [1] of 61.7±3.9%, a relative responsiveness [2] of 42.3±7.0% and a relative responsiveness [3] of 39.8±6.2%.

For `CC[C@H](C)[C@H]1O[C@]2(CC[C@@H]1C)C[C@@H]1C[C@@H](C/C=C(\C)[C@@H](O[C@H]3C[C@H](OC)[C@@H](O[C@H]4C[C@H](OC)[C@@H](O)[C@H](C)O4)[C@H](C)O3)[C@@H](C)/C=C/C=C3\CO[C@@H]4[C@H](O)C(C)=C[C@@H](C(=O)O1)[C@]34O)O2` [IVM, ivermectin], the “Fold incr. Imax” value [1, 8] was 1.6 ± 0.2 fold, the “Fold incr. Imax” value [2, 8] was 2.0 ± 0.3 fold and the “Fold incr. Imax” value [3, 8] was 1.9 ± 0.3 fold.

`Nc1ncnc2c1ncn2C1OC(COP(=O)(O)CP(=O)(O)OP(=O)(O)O)C(O)C1O` (stereo not drawn) [α,β-meATP, α,β-methyleneadenosine 5′-triphosphate] showed a relative responsiveness [1] of 19.2±6.2%, a relative responsiveness [2] of 16.2±4.4 % and a relative responsiveness [3] of 30.0±6.8%.
